Test results reported in paper PMC10619133, “The catechol moiety of obafluorin is essential for antibacterial activity” (RSC Chemical Biology, 2023).
Converted amounts (≈) assume the structure as drawn. “Also recorded” adds a separate entry of the source. Where two headings read alike, the source gives them in different places.

Key:
E. coli 25922 = assay: Spot-on-lawn MIC bioassay; assay type: cell-based, E. coli ATCC 25922; conditions: for lowest concentration which gave an inhibition zone: - Fe3+; for MIC: Escherichia coli, 25922, spot-on-lawn
Experimental: (§1) Indicator strains were grown for 16–18 h in LB (5 mL) by inoculation from a single colony. An aliquot of the resulting culture (500 μL) was then used to inoculate LB (50 mL in 250 mL Erlenmeyer flasks), followed by orbital shaking at 250 rpm until they reached an OD600 of 0.3–0.4. These cultures were then diluted 1 : 10 with molten soft nutrient agar (SNA), before pouring into appropriately sized Petri dishes to set. Serial dilutions of the test compounds (from 256 μg mL^−1 to 1 μg mL^−1 plus an additional sample at 1000 μg mL^−1) were prepared in acetonitrile (ACN), and 4 μL of each sample was applied directly onto the SNA surface. Kanamycin (50 μg mL^−1), apramycin (50 μg mL^−1) or aureobasidin A (0.2 μg mL^−1) were used as positive controls, as appropriate, and ACN or water (4 μL) were used as negative controls. […] Experiments were carried out in at least triplicate for each strain.
(§2) The method was the same as for the antibacterial MIC assays described above, with the following modifications: for excess iron, Fe(NO3)3·9H2O stock (400 mM) was added to give a final concentration of 1.5 or 2.0 mM; for iron depletion, bipy stock (1 M) was added to give a final concentration of 150 μM. For MRSA, 1 was further diluted to 0.5 0.25 and 0.125 μg mL^−1 due to a decrease in MIC under excess iron conditions. The general effect of excess iron on the activity of alternative antibiotics was determined by performing a similar serial dilution of carbenicillin, kanamycin, streptomycin, nitrofurantoin and chloramphenicol in the presence of Fe^3+.

S. aureus = assay: Bioassay of control antibiotics with and without additional Fe3+; assay type: cell-based
Experimental: as §2

PfThrRS = PfThrRS (Pseudomonas fluorescens, UniProt C3JZN7); assay: Aminoacylation assay; assay type: biochemical, P. fluorescens; conditions: for IC100: read-out: concentration of full inhibition
Experimental: (§3) To measure the effects of 1–4 on ThrRS canonical tRNA charging activity, an assay modified from that reported by Ruan et al.[53] was used, where active enzyme was incubated with its necessary substrates and its activity measured using ^14C labeled Thr and a liquid scintillation counter. Purified ThrRS protein (10 nM) was pre-incubated with varying concentrations of compounds 1–4 or ACN for 10 min. After pre-incubation, ThrRS samples were added to a master reaction mixture with the final component concentrations of HEPES (100 mM, pH 7.0), ATP (4 mM), MgCl2 (10 mM), L-[U-^14C]threonine (50 μM, Moravek Inc.), and tRNA^Thr (5 μM). This mixture was incubated at room temperature for 10 min, with samples taken at 1, 2.5, 5, and 10 min. At each time point, a 7 μL aliquot was spotted onto a 5% trichloroacetic acid (TCA) presoaked 3 MM Whatman paper (Cytiva) squares (repeated in triplicate). After allowing the spots to dry, the Whatman paper was washed three times with 5% TCA, and once with 95% EtOH. The Whatman paper was dried and the counts on each square of paper analyzed using a Tri-Carb 2910 TR liquid scintillation counter using Hydrofluor Liquid Scintillation Fluid (National Diagnostics). To calculate IC50 values, fractional initial velocities (velocity of inhibited reaction/velocity in the absence of inhibitor) were plotted against the log of 1 concentration and then fitted to eqn (1), using GraphPad Prism.1 [drawing 1]

EcThrRS = molecular target: T1, EcThrRS (Escherichia coli, UniProt P0A8M3); assay: Aminoacylation assay; assay type: biochemical, E. coli; conditions: for concentration at which complete inhibition was observed / IC50: enzyme 10 nM; for IC50: 10 min preincubation with compound; for fold less potent than 1: ratio of IC50 values
T1 construct: His6 (N); made in house; host or cells: E. coli NiCo21(DE3)
Experimental: as §3

E. coli NR698 = assay: Spot-on-lawn MIC bioassay; assay type: cell-based; conditions: Escherichia coli
Experimental: as §1

MRSA = assay: Spot-on-lawn MIC bioassay; assay type: cell-based, Methicillin-resistant Staphylococcus aureus; conditions: spot-on-lawn; for MIC: Staphylococcus aureus, MRSA; for antibacterial activity (in words): Fig. S13
Experimental: as §1, §2

[1] = Hydrolysis of the β-lactone in HEPES buffer monitored by HPLC; assay type: physicochemical; conditions: for effect of added Fe^3+ on hydrolysis (in words): Fe^3+ 1 mM, HEPES 100 mM, pH 6.0–8.0, 30 min; for hydrolysis of β-lactone (in words): pH 8.0, HEPES 100 mM, 30 min, no Fe^3+
Experimental: Hydrolysis of 1–4 was analysed on an Agilent 1290 system fitted with an Agilent LC/MSD MS spectrometer. A Kinetex XB-C18, 100 × 4.6 mm, 5 μM column (Phenomenex) was used with a gradient elution: ACN/0.1% (v/v) FA (H2O) gradient from 5/95 for 0–0.5 min, 5/95 to 98/2 0.5–12 min, 98/2 for 12–13 min, gradient to 5/95 13–13.5 min and 5/95 for 13.5–15 min. The flow rate was 0.6 mL min^−1 and the injection volume of each sample 5 μL. DAD signals were analysed at 270 nm, with a bandwidth of 4 nm. MS were recorded in positive mode using an atmospheric pressure ionisation electrospray (API-ES) ion source with a capillary voltage of 3000 V. The drying gas temperature was 350 °C with a flow rate of 12 L min^−1. The scan parameters were: mass range = 200–1500; fragmentor = 70; gain EMV = 1.0; threshold = 150; step-size = 0.10. Data were analysed with Agilent ChemStation software.
Five solutions of HEPES buffer (111 mM) were prepared at pH 6.0, 6.5, 7.0, 7.5 and 8.0 respectively. A further five solution of HEPES buffer (111 mM) with Fe(NO3)3.9H2O ([…]) were also prepared at pH 6.0, 6.5, 7.0, 7.5, 8.0 respectively. Stock solutions of 1–4 (10 mM) were prepared in DMSO. For each hydrolysis experiment, stock solution of 1–4 (10 μL) was added the HEPES buffer (90 μL) or the HEPES + Fe(NO3)3.9H2O buffer (90 μL), to give final concentrations of HEPES (100 mM), 1–4 (1 mM) and Fe^3+ (0 or 1 mM). The reaction mixtures were shaken using a bench top vortex and left to stand for 30 min, after which the samples were analysed by HPLC using the Analytical HPLC method. All stock solutions of 1–4 were tested at every pH, with and without Fe^3+ and all experiments were repeated in triplicate.

S. cerevisiae = assay: Spot-on-lawn MIC bioassay; assay type: cell-based, S. cerevisiae NCYC 2939; conditions: Saccharomyces cerevisiae
Experimental: as §1

B. subtilis = assay: Spot-on-lawn MIC bioassay; assay type: cell-based, B. subtilis EC 1524; conditions: Bacillus subtilis
Experimental: as §1

[2] = Figure S10 legend, read-out: Minimum inhibitory concentration
[3] = standard conditions, read-out: MIC
[4] = NR698, read-out: Minimum inhibitory concentration
[5] = Figure S8 legend, read-out: Minimum inhibitory concentration
[6] = Figure S12 legend, read-out: Minimum inhibitory concentration
[7] = Figure S9 legend, read-out: Minimum inhibitory concentration

Chain of PfThrRS (C3JZN7 whole entry): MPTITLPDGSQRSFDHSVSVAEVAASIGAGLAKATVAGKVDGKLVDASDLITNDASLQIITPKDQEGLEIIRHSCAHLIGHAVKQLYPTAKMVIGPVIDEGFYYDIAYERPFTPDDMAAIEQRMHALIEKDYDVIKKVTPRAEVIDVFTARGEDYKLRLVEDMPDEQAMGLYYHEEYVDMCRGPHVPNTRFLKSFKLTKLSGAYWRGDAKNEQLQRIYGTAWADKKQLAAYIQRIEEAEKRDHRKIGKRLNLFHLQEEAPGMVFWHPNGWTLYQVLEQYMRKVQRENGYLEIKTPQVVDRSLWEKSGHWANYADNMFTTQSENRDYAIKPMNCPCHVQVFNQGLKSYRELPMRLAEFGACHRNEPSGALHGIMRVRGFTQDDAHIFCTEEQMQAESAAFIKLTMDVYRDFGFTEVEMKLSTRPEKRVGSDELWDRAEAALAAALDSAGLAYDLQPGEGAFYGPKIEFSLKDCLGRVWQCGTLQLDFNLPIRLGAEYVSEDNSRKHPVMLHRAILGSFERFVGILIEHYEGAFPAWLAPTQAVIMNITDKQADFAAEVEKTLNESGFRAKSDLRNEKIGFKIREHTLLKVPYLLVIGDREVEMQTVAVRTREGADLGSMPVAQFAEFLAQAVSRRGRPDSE
T1 sequence (P0A8M3 whole entry): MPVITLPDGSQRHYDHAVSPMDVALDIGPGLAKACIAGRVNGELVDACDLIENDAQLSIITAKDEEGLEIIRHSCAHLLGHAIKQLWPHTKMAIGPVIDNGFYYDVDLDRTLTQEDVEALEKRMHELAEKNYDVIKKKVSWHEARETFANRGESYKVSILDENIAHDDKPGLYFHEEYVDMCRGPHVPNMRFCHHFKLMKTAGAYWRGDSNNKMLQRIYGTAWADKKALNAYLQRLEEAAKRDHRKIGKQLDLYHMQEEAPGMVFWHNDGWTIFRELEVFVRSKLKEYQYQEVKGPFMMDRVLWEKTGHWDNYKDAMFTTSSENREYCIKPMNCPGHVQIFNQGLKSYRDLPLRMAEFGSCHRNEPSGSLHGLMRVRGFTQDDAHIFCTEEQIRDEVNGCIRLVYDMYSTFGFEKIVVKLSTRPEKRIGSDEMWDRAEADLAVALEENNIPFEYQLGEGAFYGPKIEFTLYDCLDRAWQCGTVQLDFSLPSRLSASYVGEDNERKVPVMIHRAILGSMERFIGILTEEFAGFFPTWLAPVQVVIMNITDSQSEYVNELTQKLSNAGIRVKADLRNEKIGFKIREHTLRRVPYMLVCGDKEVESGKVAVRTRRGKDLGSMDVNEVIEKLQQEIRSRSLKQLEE

CN[C@@H]1[C@@H](O[C@H]2O[C@H](CO)[C@@H](N)[C@H](O)[C@H]2O)OC2C[C@@H](N)[C@@H](O[C@H]3[C@H](O)[C@@H](O)[C@H](N)C[C@@H]3N)OC2[C@@H]1O (some centres unmarked) [Apramycin, apramycin, reference compound]
lowest concentration which gave an inhibition zone (E. coli 25922): 50 µg/mL | lowest concentration which gave an inhibition zone (S. aureus): 50 µg/mL

CC1(C)S[C@@H]2[C@H](NC(=O)C(C(=O)O)c3ccccc3)C(=O)N2[C@H]1C(=O)O (some centres unmarked) [Carbenicillin, carbenicillin, reference compound]
lowest concentration which gave an inhibition zone (E. coli 25922): 1000 µg/mL | lowest concentration which gave an inhibition zone (S. aureus): 50 µg/mL

O=C(N[C@H](CO)[C@H](O)c1ccc([N+](=O)[O-])cc1)C(Cl)Cl [Chloramphenicol, chloramphenicol, reference compound]
lowest concentration which gave an inhibition zone (E. coli 25922): 1000 µg/mL | lowest concentration which gave an inhibition zone (S. aureus): 1000 µg/mL

NC[C@H]1O[C@H](O[C@H]2[C@H](O)[C@@H](O[C@H]3O[C@H](CO)[C@@H](O)[C@H](N)[C@H]3O)[C@H](N)C[C@@H]2N)[C@H](O)[C@@H](O)[C@@H]1O [Kanamycin, kanamycin, reference compound]
lowest concentration which gave an inhibition zone (E. coli 25922): 50 µg/mL | lowest concentration which gave an inhibition zone (S. aureus): 50 µg/mL

O=C1CN(/N=C/c2ccc([N+](=O)[O-])o2)C(=O)N1 [Nitrofurantoin, nitrofurantoin, reference compound]
lowest concentration which gave an inhibition zone (E. coli 25922): 500 µg/mL | lowest concentration which gave an inhibition zone (S. aureus): 500 µg/mL

[H]/N=C(/N)N[C@H]1[C@H](O)[C@@H](O)[C@H](O[C@@H]2O[C@@H](C)[C@](O)(C=O)[C@H]2O[C@@H]2O[C@@H](CO)[C@H](O)[C@@H](O)[C@@H]2NC)[C@@H](N/C(N)=N\[H])[C@@H]1O [Streptomycin, streptomycin, reference compound]
lowest concentration which gave an inhibition zone (E. coli 25922): 50 µg/mL | lowest concentration which gave an inhibition zone (S. aureus): 50 µg/mL

O=C(N[C@@H]1C(=O)O[C@@H]1Cc1ccc([N+](=O)[O-])cc1)c1ccccc1O [compound 2, 2-HBA-obafluorin]
IC100 (PfThrRS; enzyme 10 nM): 10 µM | MIC (E. coli 25922; [2]): > 1000 µg/mL | MIC (E. coli 25922; [3]): > 1000 µg/mL | concentration at which complete inhibition was observed (EcThrRS): 10 000 nM | IC50 (EcThrRS; read-out: IC50): 3700 ± 700 nM | fold less potent than 1 (EcThrRS): approximately 100 fold | MIC (E. coli NR698; NR698): 1000 µg/mL (≈ 2920 µM) | MIC (E. coli NR698; [4]): > 1000 µg/mL | MIC (MRSA; [5]): 1000 µg/mL (≈ 2920 µM) | MIC (MRSA; [3]): > 1000 µg/mL | effect of added Fe^3+ on hydrolysis (in words) [1]: no effect | hydrolysis of β-lactone (in words) [1]: mainly hydrolysed | MIC (S. cerevisiae; [6]): > 1000 µg/mL | MIC (S. cerevisiae; [3]): > 1000 µg/mL | MIC (B. subtilis; [7]): 1000 µg/mL (≈ 2920 µM) | MIC (B. subtilis; [3]): 1000 µg/mL (≈ 2920 µM)

O=C(N[C@@H]1C(=O)O[C@@H]1Cc1ccc([N+](=O)[O-])cc1)c1cccc(O)c1 [compound 3, 3-HBA-obafluorin]
IC100 (PfThrRS; enzyme 10 nM): 5 µM | MIC (E. coli 25922; [2]): > 1000 µg/mL | MIC (E. coli 25922; [3]): > 1000 µg/mL | concentration at which complete inhibition was observed (EcThrRS): 5000 nM | IC50 (EcThrRS; read-out: IC50): 930 ± 80 nM | fold less potent than 1 (EcThrRS): ~30 fold | MIC (E. coli NR698; NR698): > 1000 µg/mL | MIC (E. coli NR698; [4]): > 1000 µg/mL | MIC (MRSA; [5]): 1000 µg/mL (≈ 2920 µM) | MIC (MRSA; [3]): 1000 µg/mL (≈ 2920 µM) | effect of added Fe^3+ on hydrolysis (in words) [1]: no effect | hydrolysis of β-lactone (in words) [1]: mainly hydrolysed | MIC (S. cerevisiae; [6]): > 1000 µg/mL | MIC (S. cerevisiae; [3]): > 1000 µg/mL | MIC (B. subtilis; [7]): 1000 µg/mL (≈ 2920 µM) | MIC (B. subtilis; [3]): 1000 µg/mL (≈ 2920 µM)

O=C(N[C@@H]1C(=O)O[C@@H]1Cc1ccc([N+](=O)[O-])cc1)c1ccccc1 [compound 4, BA-obafluorin]
IC50 (PfThrRS; enzyme 10 nM, 10 min preincubation with compound): not inhibited; also recorded: No inhibition | inhibition of aminoacylation (in words) (PfThrRS; up to 25000 nM): no significant inhibition | MIC (E. coli 25922; [2]): > 1000 µg/mL | MIC (E. coli 25922; [3]): > 1000 µg/mL | IC50 (EcThrRS): No inhibition | inhibition of aminoacylation (in words) (EcThrRS; up to the highest concentration tested (0–25 μM)): no significant inhibition | MIC (E. coli NR698; NR698): > 1000 µg/mL | MIC (E. coli NR698; [4]): > 1000 µg/mL | MIC (MRSA; [5]): > 1000 µg/mL | MIC (MRSA; [3]): 1000 µg/mL (≈ 3060 µM) | hydrolysis of β-lactone (in words) [1]: no hydrolysis; also recorded: stable to hydrolysis | MIC (S. cerevisiae; [6]): > 1000 µg/mL | MIC (S. cerevisiae; [3]): > 1000 µg/mL | MIC (B. subtilis; [7]): > 1000 µg/mL | MIC (B. subtilis; [3]): > 1000 µg/mL

O=C(N[C@H](C(=O)O)[C@H](O)Cc1ccc([N+](=O)[O-])cc1)c1cccc(O)c1O [compound 5, β-lactone hydrolysed obafluorin]
antibacterial activity (in words) (MRSA): inactive

COC(=O)[C@@H](NC(=O)c1cccc(O)c1O)[C@H](O)Cc1ccc([N+](=O)[O-])cc1 [compound 6, β-lactone methanolysed obafluorin]
antibacterial activity (in words) (MRSA): inactive

O=C(N[C@H](C(=O)O)[C@H](O)Cc1ccc([N+](=O)[O-])cc1)c1ccccc1 [compound 7, β-lactone hydrolysed BA-obafluorin]
antibacterial activity (in words) (MRSA): inactive
